Reference: PMC12636382, “Human and zebrafish mineralocorticoid receptors reporter cell assays to assess the activity of chemicals” (iScience, 2025)
“And” between values parts separate entries of the source, which are not always exact repeats. Equal entries are not always repeated.

Experiments:
Format in all cases: cell-based
UG5LN cell line = assay: UG5LN control cells (luciferase gene only, lacking MR), non-specific luciferase modulation; settings: steroids at 10^−8 M and 10^−5 M, bimedrazol at 10^−8 M and 10^−6 M
Text: In order to establish an MR reporter cell line, we selected the U2OS cell line, as it expresses low levels of steroid receptors, such as GR, which could have interfered with the results, as many steroids are agonists of both GR and MR. To investigate whether hMR and zfMR are similarly targeted by chemicals, we selected 18 natural and synthetic steroids and 13 ECs known or their anti-androgenic activity (Tables 1 and 2).
Data are presented as means ± SD values. n (replicates per experiment) = 4 per group.
To ensure that the effect of the chemicals is due to a direct and specific interaction with the MR (and not to a general effect on transcription for instance), we also tested these products in UG5LN cells (i.e., with the luciferase gene but lacking MR).

human MR (hMR) = target: T1, human MR (hMR) (Homo sapiens, UniProt P08235); assay: UG5LN-GAL4-hMR luciferase reporter cell assay (agonism and antagonism tests)
T1 construct: hMR(LBD) (G671-K894) and zfMR(LBD) (L668-K970) have been amplified by PCR; expressed in transfected cells
T1 sequence (P08235 671-984 limits assumed): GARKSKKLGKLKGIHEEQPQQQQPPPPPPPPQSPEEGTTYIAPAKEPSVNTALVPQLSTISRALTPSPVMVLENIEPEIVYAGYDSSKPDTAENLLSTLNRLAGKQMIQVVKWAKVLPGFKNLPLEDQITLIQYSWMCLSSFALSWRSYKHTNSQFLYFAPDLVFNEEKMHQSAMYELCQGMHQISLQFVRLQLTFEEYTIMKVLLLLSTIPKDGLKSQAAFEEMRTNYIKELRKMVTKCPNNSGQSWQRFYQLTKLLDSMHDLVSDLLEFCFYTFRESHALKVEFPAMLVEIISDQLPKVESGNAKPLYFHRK
Procedure: (§1) The U2OS cells used to establish the MR reporter cell lines were obtained from and verified by ECACC (UK Health Security Agency, Porton Down, Salisbury, UK). The strategy used has been described previously to establish other NR-based cell lines.[42] First, the different pSG5-GAL4(DBD)-MRs (LBD) and (GAL4RE)5βGlob-Luc-SVNeo plasmids were tested by transient transfections in U2OS. Then, the UG5LN-GAL4-hMR and UG5LN-GAL4-zfMR clonal cells were generated in two steps. The first step was to establish clonal UG5LN cells by a stable transfection of U2OS cells, considered as steroid receptor negative, with the plasmid (GAL4RE)5βGlob-Luc-SVNeo. The second step consisted of the transfection of UG5LN cells with the plasmids pSG5-GAL4(DBD)-hMR(LBD)-puro, pSG5-GAL4(DBD)-hMRT870L(LBD)-puro or pSG5-GAL4(DBD)-zfMR(LBD)-puro, to generate UG5LN-GAL4-hMR, UG5LN-GAL4-hMRT870L and UG5LN-GAL4-zfMR clonal cells, respectively. Stable cell clones were selected in the presence of puromycin 0.5 μg/mL and G418 1 mg/mL. For each receptor, 5 to 10 clones were chosen for their ligand-induced luciferase expression. The clones were amplified and luciferase expression was checked at several passages. For each receptor, the clone with the best induction of luciferase activity was selected and used for the screening of the different chemicals. The stability and the inducibility of luciferase expression were checked during at least 20 passages (20 weeks).
(§2) To perform the reporter gene assay, cells were seeded in 96-wells white transparent culture plates (Greiner bio-one 655098CellStar; Dutscher, Brumath, France) at a density of 60,000 cells per well in 150 μL of culture medium and incubated at 37°C and 5% CO2 for 24 h. Then, after the attachment period, medium was removed and cells were exposed to increasing dilutions of the tested compounds in the experimental medium (DMSO; final concentration 0.1% v/v for chemicals and 0.3% v/v for water sample extracts) and incubated at 37°C and 5% CO2. After 24 h, medium was removed and replaced with 50 μL/well of experimental medium containing 0.3 mM luciferin. The luminescence signal was monitored in intact live cells for 2 s per well using a MicroBeta Wallac luminometer (PerkinElmer, Courtaboeuf, France). All experiments were performed in quadruplicate.
(§3) The quantification and statistical analysis are integral parts of the software used (GraphPad Prism 10, GraphPad Software Inc). The compounds were tested at different concentrations in at least three independent experiments. In each experiment, the compounds were tested in quadruplicate for each concentration, and the data were expressed as averages of the quadruplicates with their standard deviation to obtain a single value for that experimental series. Then, individual dose-response curves for each chemical were fitted from the averages of the three individual experiments using the sigmoidal dose-response function of the graphics and statistics software program GraphPad. Specifically, GraphPad employs nonlinear regression with the least squares method to fit the data to a sigmoidal function (based on the Hill equation). This method is used to determine the optimal parameter values, such as the Half Maximal Effective concentration (EC50) for agonist and the Half Maximal Inhibitory Concentration (IC50) for antagonist. […] Once the best-fit curve was obtained, the confidence intervals (e.g., 95% CI) for these parameters were estimated based on the uncertainty (variance) derived from the regression model, and the lower and upper 95% confidence limits of EC50s and IC50s were reported.

zebrafish MR (zfMR) = zebrafish MR (zfMR) (Danio rerio, UniProt A6YIH7); assay: UG5LN-GAL4-zfMR luciferase reporter cell assay (agonism and antagonism tests); settings: UG5LN-GAL4-zfMR cells
Procedure: as §1, §2, §3

Sequence of zebrafish MR (zfMR) (A6YIH7 entry or part of it): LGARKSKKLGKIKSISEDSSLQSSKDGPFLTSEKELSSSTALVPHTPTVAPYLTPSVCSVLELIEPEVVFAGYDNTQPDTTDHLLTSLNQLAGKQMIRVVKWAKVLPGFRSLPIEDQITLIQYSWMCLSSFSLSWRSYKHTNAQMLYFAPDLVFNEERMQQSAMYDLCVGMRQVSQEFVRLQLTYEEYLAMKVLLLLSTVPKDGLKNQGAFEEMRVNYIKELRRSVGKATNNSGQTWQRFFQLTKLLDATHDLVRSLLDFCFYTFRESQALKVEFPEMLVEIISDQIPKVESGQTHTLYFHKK

| Molecule | modulation of luciferase expression in UG5LN cell line (UG5LN cell line) | % max act (human MR (hMR); agonism test, % of maximal luciferase activity induced by 10^−8 M aldosterone, determined at 10^−5, 10^−6 or 10^−7 M depending on chemical (footnote)) | activity profile on hMR (agonist / partial agonist / antagonist) (human MR (hMR); in words, UG5LN-GAL4-hMR cells) | activity profile on zfMR (agonist / partial agonist / antagonist) (zebrafish MR (zfMR); in words) | EC50 (human MR (hMR); agonism test, chemical alone, UG5LN-GAL4-hMR cells, mean of at least three experiments) | IC50 (human MR (hMR); antagonism test, in presence of aldosterone 10^−9 M, UG5LN-GAL4-hMR cells) | EC50 (zebrafish MR (zfMR); agonism test, chemical alone, mean of at least three experiments) | IC50 (zebrafish MR (zfMR); antagonism test, in presence of aldosterone 0.5 10^−9 M) |
| --- | --- | --- | --- | --- | --- | --- | --- | --- |
| C[C@@H]1C[C@H]2[C@@H]3CCC4=CC(=O)C=C[C@]4(C)[C@@]3(F)[C@@H](O)C[C@]2(C)[C@@]1(O)C(=O)CO [dexamethasone] | do not modulate luciferase expression | 25.1% and 25.1 ± 7.9% | partial agonism | agonist |  |  |  |  |
| bimedrazole | do not modulate luciferase expression |  |  |  | not active | not able to decrease luciferase expression | unable to modulate luciferase expression | unable to modulate luciferase expression |
